The values that follow come from patent US6825185B2, “Substituted aryl compounds as novel cyclooxygenase-2 selective inhibitors, compositions and methods of use” (NitroMed, Inc., priority 2000, dated 2004).

For one test, the target named is T1, COX-2 (Homo sapiens, UniProt P35354).
T1 sequence (P35354 18-604): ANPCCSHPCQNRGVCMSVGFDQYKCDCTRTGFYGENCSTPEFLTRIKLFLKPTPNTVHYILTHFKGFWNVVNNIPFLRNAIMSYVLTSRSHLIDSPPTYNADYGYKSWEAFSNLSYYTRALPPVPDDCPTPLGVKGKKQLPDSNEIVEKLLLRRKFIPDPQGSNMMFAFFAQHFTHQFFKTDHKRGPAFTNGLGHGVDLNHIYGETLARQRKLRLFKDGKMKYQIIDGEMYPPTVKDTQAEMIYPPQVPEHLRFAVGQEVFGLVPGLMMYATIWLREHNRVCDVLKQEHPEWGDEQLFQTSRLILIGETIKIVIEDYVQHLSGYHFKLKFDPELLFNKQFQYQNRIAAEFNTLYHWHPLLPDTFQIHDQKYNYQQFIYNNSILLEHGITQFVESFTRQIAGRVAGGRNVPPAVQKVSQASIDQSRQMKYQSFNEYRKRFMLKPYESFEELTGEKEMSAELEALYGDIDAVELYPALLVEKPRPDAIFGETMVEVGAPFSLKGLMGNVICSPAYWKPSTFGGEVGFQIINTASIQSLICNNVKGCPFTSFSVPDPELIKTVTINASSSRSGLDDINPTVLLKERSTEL
The test can be described thus: COX-2 enzyme activity in human whole blood (LPS induced, thromboxane B2 EIA). It counts as cell-based. On the set-up: Human blood (≈50 mL) from male or female donors who had not received any aspirin or NSAIDs for 14 days; endogenous in cells; host or cells: human whole blood from donors, LPS-induced. Particulars: test compound at 10 μM. On the procedure: (§1) Human blood (≈50 mL) from male or female donors who had not received any aspirin or NSAIDs for 14 days was collected at two local area blood donor centers and placed in polypropylene syringes containing sodium heparin (20 units per mL blood, final concentration). The blood was transported to the laboratory on ice packs and used within 1.5 hours of collection. Upon receipt in the laboratory, the blood was allowed to come to room temperature for 15 minutes prior to distribution in 1 mL aliquots per well of 24 well tissue culture plates. The plates were then placed on a gently rotating platform shaker in a 5% CO2 incubator at 37° C. for 15 minutes. Test compounds were dissolved in DMSO, at 1000 fold the final desired concentration, and further diluted, as indicated, in DMSO. One μL of each dilution of the test compound was added per well, in duplicate wells; wells not receiving test compound (e.g., basal, background or control wells) received 1 μL DMSO.
To induce COX-2, lipopolysaccharide (LPS) from E. coli (LPS, serotype 026:B6 or serotype 0127:B8, Sigma Chemical Co., St. Louis, Mo., Catalogue No. L3755 or L3129, respectively) was added at 10 μg/mL (2 μL of 5 mg/mL LPS in DMSO) to appropriate wells 15 minutes after the addition of the test compound. […] (Again, basal, background or control wells not stimulated with A23187 received 1 μL of DMSO.) At 5 hours after the addition of the test compound, all incubations were terminated by placement on ice and the addition of 2 mM EGTA (100 μL of 20 mM EGTA, tetrasodium, in PBS (phosphate buffered saline) without Ca^++ and Mg^++, pH 7.2)). The resulting solutions, were transferred by polyethylene transfer pipettes to 15 mL polypropylene centrifuge tubes and centrifuged at 1200 g for 10 minutes at 4° C. One hundred μL of plasma was removed from each blood sample and added to 1 mL of methanol in new 15 mL polypropylene centrifuge tubes, vortexed, and stored overnight at −20° C. The next day, the samples were centrifuged at 2000 g for 10 minutes at 4° C. and the supernatants transferred to glass tubes and evaporated to dryness.

Another test deals with COX-1 (Homo sapiens, UniProt P23219). Kind of test: COX-1 enzyme activity in human whole blood (A23187 stimulated, thromboxane B2 EIA). It counts as cell-based. On the set-up: Human blood (≈50 mL) from male or female donors who had not received any aspirin or NSAIDs for 14 days; endogenous in cells; host or cells: human whole blood from donors. Particulars: test compound at 100 μM. The protocol: as §1, with “The assay for COX-1 and COX-2 enzyme activity, in the human whole blood was performed as described in Brideau et al., Inflamm Res., 45: 68-74 (1996)). Human” for “Human”
To induce COX-2, lipopolysaccharide (LPS) from E. coli (LPS, serotype 026:B6 or serotype 0127:B8, Sigma Chemical Co., St. Louis, Mo., Catalogue No. L3755 or L3129, respectively) was added at 10 μg/mL (2 μL of 5 mg/mL LPS in DMSO) to appropriate wells 15 minutes after the addition of the test compound. (Basal or background wells not incubated with LPS received 2 μL of DMSO.) For the stimulation of COX-1, the calcium ionophore, A23187 (free acid from Sigma Chemical Co., St. Louis, Mo., Catalogue No. C7522) was added at 25 μM (1 μL of 25 mM stock in DMSO) to separate wells 4.5 hours after the addition of the test compound. (Again, basal, background or control wells not stimulated with A23187 received 1 μL of DMSO.) At 5 hours after the addition of the test compound, all incubations were terminated by placement on ice and the addition of 2 mM EGTA (100 μL of 20 mM EGTA, tetrasodium, in PBS (phosphate buffered saline) without Ca^++ and Mg^++, pH 7.2)). The resulting solutions, were transferred by polyethylene transfer pipettes to 15 mL polypropylene centrifuge tubes and centrifuged at 1200 g for 10 minutes at 4° C. One hundred μL of plasma was removed from each blood sample and added to 1 mL of methanol in new 15 mL polypropylene centrifuge tubes, vortexed, and stored overnight at −20° C. The next day, the samples were centrifuged at 2000 g for 10 minutes at 4° C. and the supernatants transferred to glass tubes and evaporated to dryness. The samples were assayed for thromboxane B2 using EIA kits supplied by Cayman Chemical Co. (Ann Arbor, Mich., Catalogue No. 519031) in duplicate wells after reconstitution with EIA Buffer and appropriate dilution (2000 fold for COX-1 and 500 fold for Cox-2 samples).

COX-1, sequence (P23219 24-599): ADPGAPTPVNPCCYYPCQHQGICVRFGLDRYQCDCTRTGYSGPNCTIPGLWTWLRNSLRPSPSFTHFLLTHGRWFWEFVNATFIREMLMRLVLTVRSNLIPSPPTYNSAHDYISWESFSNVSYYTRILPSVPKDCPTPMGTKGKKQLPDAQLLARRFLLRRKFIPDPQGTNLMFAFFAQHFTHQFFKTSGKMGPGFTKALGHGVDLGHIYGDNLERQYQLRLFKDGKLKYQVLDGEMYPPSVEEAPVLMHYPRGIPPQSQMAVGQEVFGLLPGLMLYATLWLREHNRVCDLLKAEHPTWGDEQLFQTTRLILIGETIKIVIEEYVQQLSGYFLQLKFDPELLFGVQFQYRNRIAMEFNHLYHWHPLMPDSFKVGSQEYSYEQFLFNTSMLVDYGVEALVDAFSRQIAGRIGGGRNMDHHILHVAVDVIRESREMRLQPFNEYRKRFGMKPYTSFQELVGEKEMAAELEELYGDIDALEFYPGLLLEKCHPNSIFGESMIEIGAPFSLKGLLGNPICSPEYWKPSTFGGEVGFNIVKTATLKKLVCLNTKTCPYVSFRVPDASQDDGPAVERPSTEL

For the compound `CS(=O)(=O)c1ccc(-c2cc3c(cc2C(=O)c2cc(F)cc(F)c2)OCO3)cc1` [Example 16, 4-(1-(3′,5′-Difluorophenyl)-1-oxomethyl)-1,2-methylenedioxy-5-(4-methylsulfonylphenyl)benzene], on COX-2, the “COX-2 Inhibition (% at 10 μM)” value was 100%. In addition, at COX-1, the “COX-1 Inhibition (% at 100 μM)” value amounted to 50%.
The matching figures for `CS(=O)(=O)c1ccc(-c2cc3c(cc2Cc2cc(F)cc(F)c2)OC(C(=O)NCCO[N+](=O)[O-])CO3)cc1` (stereo not shown) [Example 18d, (7-((3,5-Difluorophenyl)methyl)-6-(4-(methylsulfonyl)phenyl)(2H, 3H-benzo(e)1,4-dioxin-2-yl))-N-(2-(nitrooxy)ethyl)carboxamido]: 40% and 60%.
In the same order, the values of `CS(=O)(=O)c1ccc(-c2cc3c(cc2C(=O)c2ccccc2F)OCO3)cc1` [Example 4d, 2-Fluorophenyl 6-(4-(methylsulfonyl)phenyl)(2H-benzo(d)1,3-dioxolan-5-yl) ketone] are 90% and 70%.
In the same order, the values of `CCOC(=O)C1(C(=O)OCC)Oc2cc(Cc3cc(F)cc(F)c3)c(-c3ccc(S(C)(=O)=O)cc3)cc2O1` [Example 17f, 1,2-(Bis(ethoxycarbonyl))methylenedioxy-5-(1-(3′,5′-difluorophenyl)methyl)--4-(4-methylsulfonylphenyl)benzene] are 25% and 10%.
As to `Cc1ccc(F)c(C(=O)c2cc3c(cc2-c2ccc(S(C)(=O)=O)cc2)OCO3)c1` [Example 14c, 2-Fluoro-5-methylphenyl6-(4-(methylsulfonyl)phenyl)(2H-benzo(d)1,3-dioxolan-5-yl)ketone], the “COX-2 Inhibition (% at 10 μM)” value on COX-2 is 75%. On COX-1, the “COX-1 Inhibition (% at 100 μM)” value is 90%.
In the same order, the values of `O=[N+]([O-])OCc1ccc(-c2cc3c(cc2Cc2cc(F)cc(F)c2)OCO3)cc1` [Example 23d, ((4-(6-((3,5-Difluorophenyl)methyl)(2H-benzo(3,4-d)1,3-dioxolan-5-yl))phenyl)methyl)nitrooxy] are 30% and 65%.
As to `CS(=O)(=O)c1ccc(-c2cc3c(cc2Cc2ccccc2F)OCO3)cc1` [Example 4c, 1-(6-((2-Fluorophenyl)methyl)(2H-benzo(3,4-d)1,3-dioxolan-5-yl))-4-(methylsulfonyl)benzene], on COX-2, the “COX-2 Inhibition (% at 10 μM)” value is given as 60%. Besides, the “COX-1 Inhibition (% at 100 μM)” value on COX-1 was 70%.
In the same order, the values of `CS(=O)(=O)c1ccc(-c2cc(O)c(O)cc2Cc2cc(F)cc(F)c2)cc1` [Example 17e, 5-(1-(3′,5′-Difluorophenyl)methyl)-1,2-dihydroxy-4-(4-methylsulfonylphenyl)benzene] are 25% and 35%.
In the same order, the values of “Ethyl 7-((3,5-difluorophenyl)methyl)-6-(4-(methylsulfonyl)phenyl)-2H, 3H-benzo(e)1,4-dioxin-2-carboxylate and ethyl 6-((3, 5-difluorophenyl)methyl)-7-(4-(methylsulfonyl)phenyl)-2H, 3H-benzo(e)1,4-dioxin-2-carboxylate [Example 18a]” are 65% and 90%.
For `COc1cc(Cc2cc(F)cc(F)c2)c(-c2ccc(S(C)(=O)=O)cc2)cc1OC` [Example 17d, 5-(1-(3′,5′-Difluorophenyl)methyl)-1,2-dimethoxy-4-(4-methylsulfonylphenyl)benzene], the “COX-2 Inhibition (% at 10 μM)” value at COX-2 is reported as 20%. For the same compound, at COX-1, the “COX-1 Inhibition (% at 100 μM)” value worked out at 25%.
Consider `CS(=O)(=O)c1ccc(-c2cc3c(cc2Cc2cc(F)cc(F)c2)OCC(C(=O)NCCO)O3)cc1` (stereo not shown) [Example 18c, (6-((3,5-Difluorophenyl)methyl)-7-(4-(methylsulfonyl)phenyl)(2H, 3H-benzo(e)1,4-dioxin-2-yl))-N-(2-hydroxyethyl)carboxamide], for which at 10 µM the inhibition against COX-2 was 40%. Further, at COX-1, testing at 100 µM gave an inhibition of 90%.

The inhibition is the percentage by which the read-out fell short of the control. Higher therefore signals a strong effect.
